# Measured values as given in patent US20140155376A1, “PYRROLOPYRAZINE KINASE INHIBITORS” (Hoffmann-La Roche Inc., priority 2010, published 2014).
# Molecular target: T1, JAK3 (recombinant human kinase domain; h-jak3(810-1124)) (Homo sapiens, UniProt P52333)
# T1 construct: h-jak3(810- 1124)-sf9-c; made in house; host or cells: Sf9 insect cells
# Test: Determination of IC50 of Janus Kinase (JAK) inhibition: JAK3, radioactive end-point assay with 33P-ATP
# Type: biochemical
# Conditions: JAK3 kinase domain; ATP 1.5 uM, peptide 50 uM, 20 minutes, room temperature, 10% DMSO; read-out: Ic50 h-jak3(810-1124)-sf9-c:no additive
# Text: Determination of IC50 of Janus Kinase (JAK) Inhibition:
# Enzymes and peptide substrate used are described below: • JAK1: Recombinant human kinase domain from Invitrogen (Cat # PV4774) • JAK3: Recombinant human kinase domain from Millipore (Cat #14-629) or prepared. • JAK2: Recombinant human kinase domain from Millipore (Cat #14-640) • Substrate: N-terminally biotinylated 14-mer peptide derived from activation loop of JAK1 with sequence of the peptide substrate: Biotin-[sequence]
# Assay Conditions Used are Described Below: • Assay Buffer: JAK Kinase Buffer: 50 mM Hepes [pH 7.2], 10 mM MgCl2, 1 mM DTT, • 1 mg/ml BSA. The assay is carried out in this buffer. • Assay Format The kinase activity of all three JAK kinases is measured using a radioactive, end-point assay and with trace amounts of ^33P-ATP. The assays are carried out in 96-well polypropylene plates.
# All concentrations are final in the reaction mixture and all incubations are carried at room temperature. […] Final concentration of DMSO in the reaction is 10%. • 2) Compounds are preincubated with enzyme (0.5 nM JAK3 (commercially available), 0.2 nM JAK3 (prepared), 1 nM JAK2, 5 nM JAK1) for 10 minutes. • 3) Reactions are initiated by the addition of a cocktail of the two substrates (ATP and peptide premixed in the JAK Kinase Buffer). In the JAK2/JAK3 assays, ATP and the peptide are used at concentrations of 1.5 uM and 50 uM, respectively. JAK1 assay is carried out at an ATP concentration of 10 uM and a peptide concentration of 50 uM. • 4) The duration of the assay for JAK2 and JAK3 is 20 minutes. JAK1 assay is carried out for 40 minutes. With all three enzymes, reactions are terminated by the addition of 0.5M EDTA to a final concentration of 100 mM. • 5) 25 ul of terminated reactions are transferred to 150 ul of a 7.5% (v/v) slurry of streptavidin-coated sepharose beads in MgCl2- and CaCl2-free 1× Phosphate Buffered Saline containing 50 mM of EDTA in 96-well, 1.2 um MultiScreen-BV filter plates. • 6) After a 30-minute incubation, the beads are washed under vacuum with the following buffers: • a. 3 to 4 washes with 200 ul of 2M NaCl. • b. 3 to 4 washes with 200 ul of 2M NaCl plus 1% (v/v) phosphoric acid. • c. 1 wash with water. • 7) Washed plates are dried in a 60° C. oven for between 1 to 2 hours. • 8) 70 ul of Microscint 20 scintillation fluid is added to each well of filter plates and after at least 30 minutes of incubation, radioactive counts are measured in a Perkin-Elmer microplate scintillation counter.
# T1 sequence (P52333 810-1124): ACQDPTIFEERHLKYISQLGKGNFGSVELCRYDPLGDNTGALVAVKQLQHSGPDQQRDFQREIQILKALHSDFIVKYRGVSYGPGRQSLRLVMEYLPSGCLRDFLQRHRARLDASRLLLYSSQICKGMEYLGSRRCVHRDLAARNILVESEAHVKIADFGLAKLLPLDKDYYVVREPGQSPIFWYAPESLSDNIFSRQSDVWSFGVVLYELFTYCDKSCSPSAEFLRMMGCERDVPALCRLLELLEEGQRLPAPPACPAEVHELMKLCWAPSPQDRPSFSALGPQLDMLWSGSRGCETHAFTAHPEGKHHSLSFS
row,Structure (SMILES),IC50
1,"CC[C@@](C)(O)[C@@H](C)NC(=O)c1c[nH]c2ncc(C3CC3)nc12 [Example I-83, 2-Cyclopropyl-5H-pyrrolo[2,3-b]pyrazine-7-carboxylic acid ((1R,2R)-2-hydroxy-1,2-dimethyl-butyl)-amide]",47.2 nM
2,"CCN(CC)C(=O)c1ccc(-c2cnc3[nH]cc(C(=O)N[C@@H](C)C(C)(C)C)c3n2)s1 [Example I-160, 2-(5-Diethylcarbamoyl-thiophen-2-yl)-5H-pyrrolo[2,3-b]pyrazine-7-carboxylic acid ((S)-1,2,2-trimethyl-propyl)-amide]",0.32 nM
3,"Cc1cccc(-n2cnc(-c3cnc4[nH]cc(C(=O)N[C@@H](C)C(C)(C)C)c4n3)c2)c1 [Example I-150, 2-(1-m-Tolyl-1H-imidazol-4-yl)-5H-pyrrolo[2,3-b]pyrazine-7-carboxylic acid ((S)-1,2,2-trimethyl-propyl)-amide]",5.12 nM
4,"C[C@H](NC(=O)c1c[nH]c2ncc(-c3ccc(C(=O)NCc4ccncc4)s3)nc12)C(C)(C)C [Example I-165, 2-{5-[(Pyridin-4-ylmethyl)-carbamoyl]-thiophen-2-yl}-5H-pyrrolo[2,3-b]pyrazine-7-carboxylic acid ((S)-1,2,2-trimethyl-propyl)-amide]",0.17 nM
5,"N#CCNC(=O)c1c[nH]c2ncc(C3CC3)nc12 [Example I-28, 2-Cyclopropyl-5H-pyrrolo[2,3-b]pyrazine-7-carboxylic acid cyanomethyl-amide]",681 nM
6,"CC[C@@H](NC(=O)c1c[nH]c2ncc(C3CC3)nc12)C(C)(C)O [Example I-44, 2-Cyclopropyl-5H-pyrrolo[2,3-b]pyrazine-7-carboxylic acid ((R)-1-ethyl-2-hydroxy-2-methyl-propyl)-amide]",46 nM
7,"CCc1ccccc1Oc1cnc2[nH]cc(C(=O)NC(C)C)c2n1 [Example I-238, 2-(2-Ethyl-phenoxy)-5H-pyrrolo[2,3-b]pyrazine-7-carboxylic acid isopropylamide]",3850 nM
8,"CC(=O)N[C@@H]1CCc2cc(Oc3cnc4[nH]cc(C(=O)N[C@@H](C)C(C)(C)C)c4n3)ccc21 [Example I-291, 2-((R)-1-Acetylamino-indan-5-yloxy)-5H-pyrrolo[2,3-b]pyrazine-7-carboxylic acid ((S)-1,2,2-trimethyl-propyl)-amide]",37 nM
9,"CC(C)NC(=O)c1c[nH]c2ncc(Oc3ccc4c(c3)[C@H](N)CC4)nc12 [Example I-281, 2-((R)-3-Amino-indan-5-yloxy)-5H-pyrrolo[2,3-b]pyrazine-7-carboxylic acid isopropylamide]",138 nM
10,"C[C@H](NC(=O)c1c[nH]c2ncc(-c3ccc(C(=O)N4CC(CO)(CO)C4)s3)nc12)C(C)(C)C [Example I-218, 2-[5-(3,3-Bis-hydroxymethyl-azetidine-1-carbonyl)-thiophen-2-yl]-5H-pyrrolo[2,3-b]pyrazine-7-carboxylic acid ((S)-1,2,2-trimethyl-propyl)-amide]",0.13 nM
11,"Cc1cc(-c2cnc3[nH]cc(C(=O)N[C@@H](C)C(C)(C)C)c3n2)sc1C(=O)NC1CCOCC1 [Example I-219, 2-[4-Methyl-5-(tetrahydro-pyran-4-ylcarbamoyl)-thiophen-2-yl]-5H-pyrrolo[2,3-b]pyrazine-7-carboxylic acid ((S)-1,2,2-trimethyl-propyl)-amide]",0.24 nM
12,"C[C@H](NC(=O)c1c[nH]c2ncc(-c3cnn(C)c3)nc12)C(C)(C)C#N [Example I-139, 2-(1-Methyl-1H-pyrazol-4-yl)-5H-pyrrolo[2,3-b]pyrazine-7-carboxylic acid ((S)-2-cyano-1,2,2-trimethyl-ethyl)-amide]",0.55 nM
13,"CC(Cc1ccc(F)cc1)NC(=O)c1ccc(-c2cnc3[nH]cc(C(=O)N[C@@H](C)C(C)(C)C)c3n2)s1 (stereo partly drawn) [Example I-159, 2-{5-[2-(4-Fluoro-phenyl)-1-methyl-ethylcarbamoyl]-thiophen-2-yl}-5H-pyrrolo[2,3-b]pyrazine-7-carboxylic acid ((S)-1,2,2-trimethyl-propyl)-amide]",0.53 nM
14,"COC[C@H](NC(=O)c1c[nH]c2ncc(C3CC3)nc12)C(C)(C)C [Example I-64, 2-Cyclopropyl-5H-pyrrolo[2,3-b]pyrazine-7-carboxylic acid ((R)-1-methoxymethyl-2,2-dimethyl-propyl)-amide]",35.1 nM
15,"C[C@@H](NC(=O)c1c[nH]c2ncc(C3CC3)nc12)[C@](C)(O)CC#N [Example I-91, 2-Cyclopropyl-5H-pyrrolo[2,3-b]pyrazine-7-carboxylic acid ((1R,2R)-3-cyano-2-hydroxy-1,2-dimethyl-propyl)-amide]",38.7 nM
16,"CC[C@](C)(O)[C@H](C)NC(=O)c1c[nH]c2ncc(C3CC3)nc12 [Example I-31, 2-Cyclopropyl-5H-pyrrolo[2,3-b]pyrazine-7-carboxylic acid ((1S,2S)-2-hydroxy-1,2-dimethyl-butyl)-amide]",39.5 nM
17,"N#CCC(NC(=O)c1c[nH]c2ncc(C3CC3)nc12)C1CC1 (stereo not shown) [Example I-106, 2-Cyclopropyl-5H-pyrrolo[2,3-b]pyrazine-7-carboxylic acid (2-cyano-1-cyclopropyl-ethyl)-amide]",14.7 nM
18,"CC[C@H](C)NC(=O)c1c[nH]c2ncc(Oc3ccc4c(c3)[C@H](NC(C)=O)CC4)nc12 [Example I-296, 2-((R)-3-Acetylamino-indan-5-yloxy)-5H-pyrrolo[2,3-b]pyrazine-7-carboxylic acid ((S)-sec-butyl)-amide]",22.9 nM
19,"C[C@H](Cc1cnc[nH]1)NC(=O)c1ccc(-c2cnc3[nH]cc(C(=O)N[C@@H](C)C(C)(C)C)c3n2)s1 [Example I-199, 2-{5-[(R)-2-(3H-Imidazol-4-yl)-1-methyl-ethylcarbamoyl]-thiophen-2-yl}-5H-pyrrolo[2,3-b]pyrazine-7-carboxylic acid ((S)-1,2,2-trimethyl-propyl)-amide]",0.65 nM
20,"CC(C)(C)[C@H](CO)NC(=O)c1c[nH]c2ncc(C3CC3)nc12 [Example I-52, 2-Cyclopropyl-5H-pyrrolo[2,3-b]pyrazine-7-carboxylic acid ((R)-1-hydroxymethyl-2,2-dimethyl-propyl)-amide]",11.1 nM
21,"N#CC(NC(=O)c1c[nH]c2ncc(C3CC3)nc12)C1CC1 (stereo not shown) [Example I-90, 2-Cyclopropyl-5H-pyrrolo[2,3-b]pyrazine-7-carboxylic acid (cyano-cyclopropyl-methyl)-amide]",14.5 nM
22,"CC(C)NC(=O)c1c[nH]c2ncc(Oc3ccccc3Cc3ccccc3)nc12 [Example I-237, 2-(2-Benzyl-phenoxy)-5H-pyrrolo[2,3-b]pyrazine-7-carboxylic acid isopropylamide]",5360 nM
23,"CC(C)NC(=O)c1c[nH]c2ncc(Oc3ccc4c(c3)C(=O)CC4)nc12 [Example I-297, 2-(3-Oxo-indan-5-yloxy)-5H-pyrrolo[2,3-b]pyrazine-7-carboxylic acid isopropylamide]",573 nM
24,"COC(C)(C)CNC(=O)c1c[nH]c2ncc(C3CC3)nc12 [Example I-50, 2-Cyclopropyl-5H-pyrrolo[2,3-b]pyrazine-7-carboxylic acid (2-methoxy-2-methyl-propyl)-amide]",9.03 nM
25,"CC(C)(CO)CNC(=O)c1c[nH]c2ncc(Br)nc12 [Example I-1, 2-Bromo-5H-pyrrolo[2,3-b]pyrazine-7-carboxylic acid (3-hydroxy-2,2-dimethyl-propyl)-amide]",225 nM
